One assay deals with GDF8. Nature of the assay: AlphaScreen SureFire p-SMAD3 (Ser423/425) assay, GDF8-stimulated cells. The assay is classed as cell-based. Conditions: Mus musculus. Put shortly: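 A SureFire AlphaScreen assay measured phosphorylation of endogenous SMAD-3 at Ser423/425 in cell lysates. Cells were treated with three-fold serially diluted compounds in DMSO for about 10 minutes, then stimulated with GDF8. After medium removal, cells were lysed in 1× Lysis Buffer (about 25 μL) with gentle shaking for 5-10 minutes.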
A general note: In Alpha technology, singlet oxygen from a donor bead excites a nearby acceptor bead.

A further assay has as its system TGF-β. Nature of the assay: AlphaScreen SureFire p-SMAD3 (Ser423/425) assay, TGF-β-stimulated cells. It counts as cell-based. As to conditions: Mus musculus. A digest of the protocol: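 The p-SMAD-3 (Ser423/425) SureFire assay measured phosphorylation of endogenous SMAD-3 in cell lysates. Cells were plated overnight in collagen-coated plates, exposed to three-fold serially diluted compounds for about 10 minutes, then stimulated with TGFβ. Lysates (5 μL) received acceptor bead mix for 2 hours, then donor beads for 1½ hours before AlphaScreen reading.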

Where [1] appears, read: MPC-11, read-out: GDF8: inhibition of GDF8 signaling, GDF pSMAD (MPC11), p-SMAD3 (Ser423/425) AlphaScreen in cell lysate, GDF8 stimulation.
[2] abbreviates: MPC-11, read-out: TGF-β: inhibition of TGF-β signaling, TGF-β pSMAD (MPC-11), p-SMAD3 (Ser423/425) AlphaScreen in cell lysate, TGF-β stimulation.
Setting [3] is: MPC-11, p-SMAD3 (Ser423/425) AlphaScreen in cell lysate, MPC11, GDF8 stimulation, read-out: GDF8: inhibition of GDF8 signaling, GDF pSMAD (MPC11).
Setting [4] is: p-SMAD3 (Ser423/425) AlphaScreen in cell lysate, MPC-11, TGF-β stimulation, read-out: TGF-β: inhibition of TGF-β signaling, TGF-β pSMAD (MPC-11).

Where two headings read alike, the source gives them in different places.

Consider `Fc1ccc(-c2nc3n(c2-c2ccc4[nH]ncc4c2)CCC3)c(F)c1F` [Compound 225, 5-(2-(2,3,4-trifluorophenyl)-6,7-dihydro-5H-pyrrolo[1,2-a]imidazol-3-yl)-1H-indazole], for which the IC50 in the assay on GDF8 (setting [1]) and with TGF-β (setting [2]) was 0.1 to 1 µM throughout.
For the compound `Fc1ccc(-c2nc3n(c2-c2ccc4ncsc4c2)CCC3)c(F)c1F` [Compound 226, 6-(2-(2,3,4-trifluorophenyl)-6,7-dihydro-5H-pyrrolo[1,2-a]imidazol-3-yl)benzo[d]thiazole], the IC50 with GDF8 (setting [1]) and in the assay on TGF-β (setting [2]) was 0.1 to 1 µM each time.
For `Fc1cc(-c2nc3n(c2-c2ccc4nccnc4c2)CCC3)cc(F)c1F` [Compound 227, 6-(2-(3,4,5-trifluorophenyl)-6,7-dihydro-5H-pyrrolo[1,2-a]imidazol-3-yl)quinoxaline], the IC50 with GDF8 (setting [3]) is 0.1 to 1 µM; with TGF-β (setting [4]) it was greater than 1 µM.
For the compound `Fc1cc(-c2nc3n(c2-c2ccc4[nH]ncc4c2)CCC3)cc(F)c1F` [Compound 228, 5-(2-(3,4,5-trifluorophenyl)-6,7-dihydro-5H-pyrrolo[1,2-a]imidazol-3-yl)-1H-indazole], the IC50 in the assay on GDF8 (setting [1]) and with TGF-β (setting [2]) was 0.1 to 1 µM each time.
As to `Fc1cc(-c2nc3n(c2-c2ccc4ncsc4c2)CCC3)cc(F)c1F` [Compound 229, 6-(2-(3,4,5-trifluorophenyl)-6,7-dihydro-5H-pyrrolo[1,2-a]imidazol-3-yl)benzo[d]thiazole], the IC50 with GDF8 (setting [1]) is 0.1 to 1 µM; in the assay with TGF-β (setting [2]) it was greater than 1 µM.
As to `Fc1cc(F)cc(-c2nc3n(c2-c2ccc4[nH]ncc4c2)CCC3)c1` [Compound 230, 5-(2-(3,5-difluorophenyl)-6,7-dihydro-5H-pyrrolo[1,2-a]imidazol-3-yl)-1H-indazole], the IC50 in the assay with GDF8 (setting [1]) is 0.1 to 1 µM; in the assay with TGF-β (setting [2]) it was greater than 1 µM.
Regarding `Fc1cc(F)cc(-c2nc3n(c2-c2ccc4cn[nH]c4c2)CCC3)c1` [Compound 231, 6-(2-(3,5-difluorophenyl)-6,7-dihydro-5H-pyrrolo[1,2-a]imidazol-3-yl)-1H-indazole], the IC50 was 0.1 to 1 µM in the assay with GDF8 (setting [1]) and greater than 1 µM in the assay on TGF-β (setting [2]).
For `Fc1cc(F)cc(-c2nc3n(c2-c2ccc4ncsc4c2)CCC3)c1` [Compound 232, 6-(2-(3,5-difluorophenyl)-6,7-dihydro-5H-pyrrolo[1,2-a]imidazol-3-yl)benzo[d]thiazole], in that order: 0.1 to 1 µM and greater than 1 µM.
Turning to `Fc1cc(F)cc(-c2nc3n(c2-c2ccc4nccnc4c2)CCC3)c1` [Compound 233, 6-(2-(3,5-difluorophenyl)-6,7-dihydro-5H-pyrrolo[1,2-a]imidazol-3-yl)quinoxaline], the IC50 in the assay with GDF8 (setting [1]) and with TGF-β (setting [2]) was greater than 1 µM in each case.
Consider `Fc1cc(F)cc(-c2nc3n(c2-c2ccc4ncccc4c2)CCC3)c1` [Compound 234, 6-(2-(3,5-difluorophenyl)-6,7-dihydro-5H-pyrrolo[1,2-a]imidazol-3-yl)quinoline], for which the IC50 with GDF8 (setting [1]) and in the assay with TGF-β (setting [2]) was greater than 1 µM in each case.
On to `Fc1cc(F)c(F)c(-c2nc3n(c2-c2ccc4ncsc4c2)CCC3)c1` [Compound 235, 6-(2-(2,3,5-trifluorophenyl)-6,7-dihydro-5H-pyrrolo[1,2-a]imidazol-3-yl)benzo[d]thiazole], for which the IC50 in the assay on GDF8 (setting [1]) and in the assay on TGF-β (setting [2]) was 0.1 to 1 µM each time.
Regarding `Fc1cc(F)c(F)c(-c2nc3n(c2-c2ccc4[nH]ncc4c2)CCC3)c1` [Compound 236, 5-(2-(2,3,5-trifluorophenyl)-6,7-dihydro-5H-pyrrolo[1,2-a]imidazol-3-yl)-1H-indazole], the IC50 in the assay on GDF8 (setting [1]) was 0.1 to 1 µM; with TGF-β (setting [2]), greater than 1 µM.
Consider `Fc1cc(F)c(F)c(-c2nc3n(c2-c2ccc4ncccc4c2)CCC3)c1` [Compound 237, 6-(2-(2,3,5-trifluorophenyl)-6,7-dihydro-5H-pyrrolo[1,2-a]imidazol-3-yl)quinoline], for which the results for the IC50 in the assay on GDF8 (setting [3]) and in the assay on TGF-β (setting [4]) were 0.1 to 1 µM and greater than 1 µM, respectively.
